Source: patent US20240391956A1, “STAPLED PEPTIDES AND METHODS THEREOF” (FOG PHARMACEUTICALS, INC., priority 2023, published 2024)
Where two headings read alike, the source gives them in different places. *1 amine or outer side, *2 acyl side, *3 side chain or, on linkers, in order; H or OH if unused. Where a SMILES comes first, the peptide text is derived from it. Bridges are numbered along the chain shown (N, C = ends). [ ]: non-standard residue; d: D form. Phenylene(1,4-NHCOCH2)2 = O=C(C[*:1])Nc1ccc(NC(=O)C[*:2])cc1; dNle = CCCC[C@@H](N)C(=O)O

Key:
MDM2 (residues 25-109) = target: T1, MDM2 (residues 25-109) (Homo sapiens, UniProt Q00987); experiment: SPR binding to immobilized biotinylated MDM2 25-109 (Biacore 8K)
T1 construct: MDM2 (residues 25-109) with an N-terminal 6×His-yBBr-TEV tag was recombinantly expressed in E. coli; made in house; host or cells: E. coli BL21 CodonPlus
Protocol: SPR experiments were performed on a Biacore 8K (Cytiva) instrument at 25° C. in 1×HBS-P+ buffer (Cytiva) with 1% DMSO. A SA Series S sensor chip was docked and pre-conditioned with three injections of 50 mM NaOH/1 M NaCl to remove unbound streptavidin from the surface. Biotinylated MDM2^25-109 were diluted to 2 μg/mL in running buffer and immobilized to channels 1 through 8 at 5 μL/min for 71 sec for a final immobilization level of ˜390 RU. Peptides were diluted to 5 μM in running buffer then serially diluted 2-fold for a total of seven concentrations with one blank (7-point two-fold peptide dilution series with top concentration=5 μM and bottom concentration=78 nM). Compounds were injected over the immobilized and reference surfaces at 30 μL/min for 60 sec and then allowed to dissociate for 180 sec without surface regeneration (N=1). Data was analyzed using Biacore Insight Evaluation software (Cytiva). Sensorgrams were double referenced, with most of them fitted to a 1:1 steady state affinity model, with a few fitted with both steady state affinity model and kinetics model.
MDM2 expression: MDM2 (residues 25-109) with an N-terminal 6×His-yBBr-TEV tag was recombinantly expressed in E. coli BL21 CodonPlus cells (Agilent) from pET-derived expression vectors (Novagen) (“6×His” disclosed as SEQ ID NO: 13). The cells were induced at OD600=0.6 with 1 mM isopropyl β-D-1-thiogalactopyranoside (IPTG) for 4 hours at 37° C., then harvested and resuspended in 25 mM Tris-HCl pH 7.5, 300 mM NaCl, 10% glycerol, 1 mM PMSF. For purification, the pellet was lysed with a tip sonicator, and pelleted at 22,000×g for 30 minutes at 4° C. The pellets were washed with 20 mM Tris-HCl pH 8.0, 150 mM NaCl, 1 M urea, 1.0% triton X-100 three times, and the inclusion body was dissolved in 20 mM Tris-HCl pH 8.0, 150 mM NaCl, 8 M urea, and 2 mM ß-mercaptoethanol (ß-me). The supernatant was purified with Ni-NTA resin (Qiagen), eluting with 20 mM Tris-HCl pH 8.0, 150 mM NaCl, 8 M urea, 2 mM ß-me, and 250 mM imidazole. Protein elutes were diluted to ˜0.1 mg/mL and dialyzed into buffers containing 10 mM Tris-HCl pH 8.0, 150 mM NaCl, 2 mM ß-me, with 4, 2, 1, or 0 M urea, at 4° C. for 8 hours for each urea gradient. Urea-free proteins were concentrated with Amicon spin filters (Millipore Sigma) to ˜1 mg/mL and biotinylated via the yBBr reaction according to reported procedures (e.g., reported in Yin, J. et al. Genetically encoded short peptide tag for versatile protein labeling by Sfp phosphopantetheinyl transferase. Proceedings of the National Academy of Sciences 102, 15815-15820 (2005)). Biotinylated proteins were pooled, concentrated, and loaded onto a Superdex™ 10/300 75 pg (Cytiva) SEC column and eluted in 20 mM HEPES pH 7.0, 200 mM NaCl, 5% glycerol, 0.5 mM tris(2-carboxyethyl) phosphine (TCEP). Fractions containing pure protein were collected, pooled, concentrated to ˜1 mg/mL and stored at −80° C. In some embodiments, such MDM2 preparation were utilized in biochemical assays.

[1] = target: T2, CHIP23-303 recombinant protein (Homo sapiens, UniProt Q9UNE7); experiment: Competition fluorescence polarization with CHIP23-303 and HSP70-derived probe 5FAM-bAla-[…]; type: binding; settings: competition FP, 400 nM CHIP23-303, 20 nM probe, 1 hour at room temperature; read-out: Measured KD
T2 construct: 6xHis (N, cleaved yes); TEV site (N, cleaved yes); made in house; host or cells: E. coli BL21 CodonPlus
T2 sequence (Q9UNE7 23-303): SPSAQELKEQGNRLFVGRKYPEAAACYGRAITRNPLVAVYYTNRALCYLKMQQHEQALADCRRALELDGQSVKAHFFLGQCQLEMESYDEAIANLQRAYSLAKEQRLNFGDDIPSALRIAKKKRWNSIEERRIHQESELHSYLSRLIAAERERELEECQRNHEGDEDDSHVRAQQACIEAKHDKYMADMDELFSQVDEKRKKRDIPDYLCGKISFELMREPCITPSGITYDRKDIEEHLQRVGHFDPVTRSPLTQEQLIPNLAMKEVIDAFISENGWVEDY
Protocol: For the competition FP of CHIP, stapled peptides at 10 mM in DMSO were serially diluted 1:3 in DMSO for a total of 11 concentrations using a Mosquito LV (SPT Labtech), then diluted 1000-fold in buffer (1×HBS-P+, Cytiva) in duplicate by the Mosquito LV (SPT Labtech) into a black polystyrene 384-well plate (Corning) (11-point three-fold peptide dilution series with top concentration=10 μM). The assay was performed with 400 nM CHIP23-303 recombinant protein as target, and 20 nM BCHIP-binding peptide as probe (5FAM-bAla-[…] (SEQ ID NO: 18), derived from HSP70). The plate was incubated and protected from light for 1 hour at room temperature prior to reading. Reads were performed on a CLARIOstar plate reader (BMG Labtech) with excitation at 485 nm, emission at 525 nm, and cutoff at 504 nm. Data were fitted to a 1:1 binding model with Hill slope using an in-house script.
In some embodiments, CHP polypeptide was prepared as follows: CHIP (residues 23-303 for competition FP and 23-154 for crystallography) with an N-terminal 6×His-TEV tag was recombinantly expressed in E. coli BL21 CodonPlus cells (Agilent) from a pET21b-derived expression vector (Novagen) (“6×His” disclosed as SEQ ID NO: 13). The cells were induced at OD600=0.6 with 1 mM IPTG for 4 hours at 37° C., then harvested and resuspended in 50 mM Tris-HCl pH 8.0, 500 mM NaCl, 10 mM imidazole, 10% glycerol, and 10 mM ß-me. For purification, the pellet was lysed with a tip sonicator with power level set at 400 W, 3 seconds on and 3 seconds off for 20 min, pelleted at 22,000×g for 30 minutes at 4° C. The supernatant was purified with Ni-NTA resin (Qiagen), eluting with 250 mM imidazole. Eluted proteins were pooled, concentrated, and TEV-cleaved by adding TEV protease at a ratio of 1:10 protease to protein and incubated overnight at 4° C. TEV-cleaved proteins were loaded onto a Superdex™ 10/300 75 pg (Cytiva) SEC column, and eluted in 50 mM HEPES, pH 8.0, 150 mM NaCl, 10% glycerol, 2 mM DTT. Fractions containing pure protein were collected, pooled, concentrated to 30 mg/mL and stored at −80° C. […]

T1 sequence (Q00987 25-109): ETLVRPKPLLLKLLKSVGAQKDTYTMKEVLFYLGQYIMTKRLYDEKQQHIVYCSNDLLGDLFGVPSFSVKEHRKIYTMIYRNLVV

Compound | Kd (MDM2 (residues 25-109)) [nM] | also measured
CC(=O)N[C@H](CC(=O)O)C(=O)N1CCC[C@@H]1C(=O)N[C@H](C)C(=O)N[C@H](Cc1c[nH]c2ccccc12)C(=O)N[C@H](CC(N)=O)C(=O)N[C@H](Cc1c[nH]cn1)C(=O)N[C@@H]1CSCC(=O)Nc2ccc(cc2)NC(=O)CSC[C@H](C(=O)N[C@H](CO)C(=O)N[C@H](CCC(=O)O)C(=O)N[C@@H](C(N)=O)C(C)C)NC(=O)[C@@H](C(C)C)NC(=O)[C@@H](Cc2ccccc2)NC(=O)[C@@H](C)NC(=O)[C@@H](C)NC(=O)[C@@H](Cc2ccc(O)cc2)NC(=O)[C@@H](CCC(=O)O)NC1=O [H102, Ac-dpawnhceyaafvcsev-NH2] (Ac-[dD][dP][dA][dW][dN][dH][dC][dE][dY][dA][dA][dF][dV][dC][dS][dE][dV]-NH2; linker 7-14 via Phenylene(1,4-NHCOCH2)2) | 2700 | –
CCCC[C@H]1NC(=O)[C@@H](C)NC(=O)[C@@H](C)NC(=O)[C@@H](CCC(=O)O)NC(=O)[C@@H](CCCC)NC(=O)[C@H](NC(=O)[C@@H](CCC(=O)O)NC(=O)[C@@H](Cc2ccc(O)cc2)NC(=O)[C@@H](Cc2c[nH]c3ccccc23)NC(=O)[C@@H](C)NC(=O)[C@H]2CCCN2C(=O)[C@@H](CC(=O)O)NC(C)=O)CSCC(=O)Nc2ccc(cc2)NC(=O)CSC[C@H](C(=O)N[C@H](CCC(N)=O)C(=O)N[C@H](CCC(N)=O)C(=O)N[C@@H](C(N)=O)C(C)C)NC(=O)[C@@H](CCCC)NC1=O [H103, Ac-dpawyecm*eaam*m*cqqv-NH2] (Ac-[dD][dP][dA][dW][dY][dE][dC][dNle][dE][dA][dA][dNle][dNle][dC][dQ][dQ][dV]-NH2; linker 7-14 via Phenylene(1,4-NHCOCH2)2) | 880 | –
CCCC[C@H]1NC(=O)[C@@H](CC(=O)O)NC(=O)[C@@H](C)NC(=O)[C@@H](C)NC(=O)[C@@H](CC(C)C)NC(=O)[C@@H](CC(N)=O)NC(=O)[C@H](NC(=O)[C@@H](CCC(=O)O)NC(=O)[C@H](NC(=O)[C@@H](CC(C)C)NC(=O)[C@@H](C)NC(=O)[C@H]2CCCN2C(=O)[C@@H](CC(=O)O)NC(C)=O)C(C)C)CSCC(=O)Nc2ccc(cc2)NC(=O)CSC[C@H](C(=O)N[C@H](Cc2c[nH]cn2)C(=O)N[C@H](Cc2ccccc2)C(=O)N[C@H](Cc2ccc(O)cc2)C(N)=O)NC1=O [H104, Ac-dpalvecnlaadm*chfy-NH2] (Ac-[dD][dP][dA][dL][dV][dE][dC][dN][dL][dA][dA][dD][dNle][dC][dH][dF][dY]-NH2; linker 7-14 via Phenylene(1,4-NHCOCH2)2) | 1800 | –
CCCC[C@@H](NC(=O)[C@@H](CCC(N)=O)NC(=O)[C@@H](CC(C)C)NC(=O)[C@H]1CSCC(=O)Nc2ccc(cc2)NC(=O)CSC[C@@H](NC(=O)[C@H](NC(=O)[C@@H](C)NC(=O)[C@@H](Cc2c[nH]c3ccccc23)NC(=O)[C@@H](C)NC(=O)[C@H]2CCCN2C(=O)[C@@H](CC(=O)O)NC(C)=O)[C@H](C)O)C(=O)N[C@H](CCCC)C(=O)N[C@H](CC(=O)O)C(=O)N[C@H](C)C(=O)N[C@H](C)C(=O)N[C@H](CC(C)C)C(=O)N[C@H](CC(N)=O)C(=O)N1)C(N)=O [H106, Ac-dpawatcm*daalnclqm*- NH2] (Ac-[dD][dP][dA][dW][dA][dT][dC][dNle][dD][dA][dA][dL][dN][dC][dL][dQ][dNle]-NH2; linker 7-14 via Phenylene(1,4-NHCOCH2)2) | 1800 | –
CC(=O)N[C@H](CC(=O)O)C(=O)N1CCC[C@@H]1C(=O)N[C@H](C)C(=O)N[C@H](CO)C(=O)N[C@H](CCCNC(=N)N)C(=O)N[C@H](CC(N)=O)C(=O)N[C@@H]1CSCC(=O)Nc2ccc(cc2)NC(=O)CSC[C@H](C(=O)N[C@H](CCC(=O)O)C(=O)N[C@H](Cc2ccc(O)cc2)C(=O)N[C@H](Cc2c[nH]c3ccccc23)C(N)=O)NC(=O)[C@@H](CC(C)C)NC(=O)[C@@H](Cc2c[nH]cn2)NC(=O)[C@@H](C)NC(=O)[C@@H](C)NC(=O)[C@@H](Cc2c[nH]c3ccccc23)NC(=O)[C@@H](CCC(N)=O)NC1=O [H107, Ac-dpasrncqwaahlceyw-NH2] (Ac-[dD][dP][dA][dS][dR][dN][dC][dQ][dW][dA][dA][dH][dL][dC][dE][dY][dW]-NH2; linker 7-14 via Phenylene(1,4-NHCOCH2)2) | – | Kd (MDM2 (residues 25-109); SPR, 25° C., 7-point two-fold dilution, top concentration 5 μM, N=1, read-out: Measured KD): 1100 nM
CCCC[C@H]1NC(=O)[C@@H](C)NC(=O)[C@@H](C)NC(=O)[C@@H](CCCC)NC(=O)[C@@H](C(C)C)NC(=O)[C@H](NC(=O)[C@@H](CCC(N)=O)NC(=O)[C@@H](Cc2c[nH]c3ccccc23)NC(=O)[C@@H](CO)NC(=O)[C@@H](C)NC(=O)[C@H]2CCCN2C(=O)[C@@H](CC(=O)O)NC(C)=O)CSCC(=O)Nc2ccc(cc2)NC(=O)CSC[C@H](C(=O)N[C@@H](C(=O)N[C@H](CC(C)C)C(=O)N[C@H](CC(=O)O)C(N)=O)C(C)C)NC(=O)[C@@H](CC(=O)O)NC1=O [H109, Ac-dpaswqcvm*aam*dcvld-NH2] (Ac-[dD][dP][dA][dS][dW][dQ][dC][dV][dNle][dA][dA][dNle][dD][dC][dV][dL][dD]-NH2; linker 7-14 via Phenylene(1,4-NHCOCH2)2) | 2400 | –
CC[C@@H](C)[C@@H](NC(=O)[C@@H](CC(N)=O)NC(=O)[C@@H](Cc1ccc(O)cc1)NC(=O)[C@H]1CSCC(=O)Nc2ccc(cc2)NC(=O)CSC[C@@H](NC(=O)[C@@H](CC(=O)O)NC(=O)[C@@H](CCC(=O)O)NC(=O)[C@@H](Cc2c[nH]c3ccccc23)NC(=O)[C@H]2CCCN2C(C)=O)C(=O)N[C@H](C)C(=O)N[C@H](Cc2c[nH]c3ccccc23)C(=O)N[C@H](Cc2ccccc2)C(=O)N[C@H](C)C(=O)N[C@H](Cc2c[nH]c3ccccc23)C(=O)N[C@H](C)C(=O)N1)C(N)=O [H201, Ac-pwedcawfawacyni-NH2] (Ac-[dP][dW][dE][dD][dC][dA][dW][dF][dA][dW][dA][dC][dY][dN][dI]-NH2; linker 5-12 via Phenylene(1,4-NHCOCH2)2) | – | Kd [1]: 470 nM
